System: Panc354 and MetPO1 cells
Test: Flow cytometry for CD133 after combination treatment
Assay type: cell-based, human
Conditions: representative cytometry plot, JM#21 10μM, Gem 1μM

Nc1ccn([C@@H]2O[C@H](CO)[C@@H](O)C2(F)F)c(=O)n1 [gemcitabine]
CD133 - PE positive cells: 14.5%

Source: paper doi:10.1101/2025.03.03.641126v1 (bioRxiv, 2025)
